Measured values published in ChEMBL document CHEMBL1671673, “In vitro activity of colistin (polymyxin E) against 3,480 isolates of gram-negative bacilli obtained from patients in Canadian hospitals in the CANWARD study, 2007-2008” (Antimicrob Agents Chemother, 2009).

Columns and labels:
Assay type in all cases: functional, organism-based
Parameters in all cases: scale not given: the % may be the effect or the level left
[1] = test system: Pseudomonas aeruginosa; test: Antibacterial activity against Amikacin-resistant Pseudomonas aeruginosa assessed as susceptible isolates at minimum inhibitory concentration of 0.5 ug/ml by CLSI broth microdilution method
[2] = test system: Pseudomonas aeruginosa; test: Antibacterial activity against Ciprofloxacin-resistant Pseudomonas aeruginosa assessed as susceptible isolates at minimum inhibitory concentration of >16 ug/ml by CLSI broth microdilution method
[3] = test system: Enterobacter cloacae; test: Antibacterial activity against Enterobacter cloacae assessed as susceptible isolates at minimum inhibitory concentration of 1 ug/ml by CLSI broth microdilution method
[4] = test system: Klebsiella oxytoca; test: Antibacterial activity against Klebsiella oxytoca assessed as susceptible isolates at minimum inhibitory concentration of 0.5 ug/ml by CLSI broth microdilution method
[5] = test system: Pseudomonas aeruginosa; test: Antibacterial activity against Meropenem-resistant Pseudomonas aeruginosa assessed as susceptible isolates at minimum inhibitory concentration of 0.5 ug/ml by CLSI broth microdilution method
[6] = test system: Pseudomonas aeruginosa; test: Antibacterial activity against Ciprofloxacin-resistant Pseudomonas aeruginosa assessed as susceptible isolates at minimum inhibitory concentration of 8 ug/ml by CLSI broth microdilution method
[7] = test system: Serratia marcescens; test: Antibacterial activity against Serratia marcescens assessed as susceptible isolates at minimum inhibitory concentration of 1 ug/ml by CLSI broth microdilution method
[8] = test system: Pseudomonas aeruginosa; test: Antibacterial activity against Pseudomonas aeruginosa assessed as susceptible isolates at minimum inhibitory concentration of >16 ug/ml by CLSI broth microdilution method
[9] = test system: Enterobacter cloacae; test: Antibacterial activity against Enterobacter cloacae assessed as susceptible isolates at minimum inhibitory concentration of >16 ug/ml by CLSI broth microdilution method
[10] = test system: Escherichia coli; test: Antibacterial activity against ESBL-producing Escherichia coli assessed as susceptible isolates at minimum inhibitory concentration of 16 ug/ml by CLSI broth microdilution method
[11] = test system: Pseudomonas aeruginosa; test: Antibacterial activity against tazobactam-resistant Pseudomonas aeruginosa assessed as susceptible isolates at minimum inhibitory concentration of 0.5 ug/ml by CLSI broth microdilution method
[12] = test system: Stenotrophomonas maltophilia; test: Antibacterial activity against Stenotrophomonas maltophilia assessed as susceptible isolates at minimum inhibitory concentration of 4 ug/ml by CLSI broth microdilution method
[13] = test system: Pseudomonas aeruginosa; test: Antibacterial activity against Cefepime-resistant Pseudomonas aeruginosa assessed as susceptible isolates at minimum inhibitory concentration of 4 ug/ml by CLSI broth microdilution method
[14] = test system: Klebsiella pneumoniae; test: Antibacterial activity against ESBL-producing Klebsiella pneumoniae assessed as susceptible isolates at minimum inhibitory concentration of 16 ug/ml by CLSI broth microdilution method
[15] = test system: Stenotrophomonas maltophilia; test: Antibacterial activity against Stenotrophomonas maltophilia assessed as susceptible isolates at minimum inhibitory concentration of 0.5 ug/ml by CLSI broth microdilution method
[16] = test system: Klebsiella pneumoniae; test: Antibacterial activity against ESBL-producing Klebsiella pneumoniae assessed as susceptible isolates at minimum inhibitory concentration of 0.12 ug/ml by CLSI broth microdilution method
[17] = test system: Klebsiella oxytoca; test: Antibacterial activity against Klebsiella oxytoca assessed as susceptible isolates at minimum inhibitory concentration of <=0.06 ug/ml by CLSI broth microdilution method
[18] = test system: Pseudomonas aeruginosa; test: Antibacterial activity against Ciprofloxacin-resistant Pseudomonas aeruginosa assessed as susceptible isolates at minimum inhibitory concentration of 0.5 ug/ml by CLSI broth microdilution method
[19] = test system: Klebsiella oxytoca; test: Antibacterial activity against Klebsiella oxytoca assessed as susceptible isolates at minimum inhibitory concentration of 1 ug/ml by CLSI broth microdilution method
[20] = test system: Pseudomonas aeruginosa; test: Antibacterial activity against MDR3 Pseudomonas aeruginosa assessed as susceptible isolates at minimum inhibitory concentration of 1 ug/ml by CLSI broth microdilution method
[21] = test system: Escherichia coli; test: Antibacterial activity against ESBL-producing Escherichia coli assessed as susceptible isolates at minimum inhibitory concentration of 4 ug/ml by CLSI broth microdilution method
[22] = test system: Enterobacter cloacae; test: Antibacterial activity against Enterobacter cloacae assessed as susceptible isolates at minimum inhibitory concentration of 2 ug/ml by CLSI broth microdilution method
[23] = test system: Escherichia coli; test: Antibacterial activity against ESBL-producing Escherichia coli assessed as susceptible isolates at minimum inhibitory concentration of 8 ug/ml by CLSI broth microdilution method
[24] = test system: Escherichia coli; test: Antibacterial activity against ESBL-producing Escherichia coli assessed as susceptible isolates at minimum inhibitory concentration of 0.5 ug/ml by CLSI broth microdilution method
[25] = test system: Pseudomonas aeruginosa; test: Antibacterial activity against Levofloxacin-resistant Pseudomonas aeruginosa assessed as susceptible isolates at minimum inhibitory concentration of 2 ug/ml by CLSI broth microdilution method
[26] = test system: Pseudomonas aeruginosa; test: Antibacterial activity against Levofloxacin-resistant Pseudomonas aeruginosa assessed as susceptible isolates at minimum inhibitory concentration of 8 ug/ml by CLSI broth microdilution method
[27] = test system: Acinetobacter baumannii; test: Antibacterial activity against Acinetobacter baumannii assessed as susceptible isolates at minimum inhibitory concentration of 1 ug/ml by CLSI broth microdilution method
[28] = test system: Pseudomonas aeruginosa; test: Antibacterial activity against Pseudomonas aeruginosa assessed as susceptible isolates at minimum inhibitory concentration of 1 ug/ml by CLSI broth microdilution method
[29] = test system: Escherichia coli; test: Antibacterial activity against ESBL-producing Escherichia coli assessed as susceptible isolates at minimum inhibitory concentration of 0.25 ug/ml by CLSI broth microdilution method
[30] = test system: Enterobacter cloacae; test: Antibacterial activity against Enterobacter cloacae assessed as susceptible isolates at minimum inhibitory concentration of 16 ug/ml by CLSI broth microdilution method
[31] = test system: Pseudomonas aeruginosa; test: Antibacterial activity against MDR4 Pseudomonas aeruginosa assessed as susceptible isolates at minimum inhibitory concentration of 2 ug/ml by CLSI broth microdilution method
[32] = test system: Stenotrophomonas maltophilia; test: Antibacterial activity against Stenotrophomonas maltophilia assessed as susceptible isolates at minimum inhibitory concentration of 16 ug/ml by CLSI broth microdilution method
[33] = test system: Pseudomonas aeruginosa; test: Antibacterial activity against Gentamicin-resistant Pseudomonas aeruginosa assessed as susceptible isolates at minimum inhibitory concentration of 2 ug/ml by CLSI broth microdilution method

COLISTIN
Activity [1]: 5.3%
Activity [2]: 100%
Activity [3]: 82.3%
Activity [4]: 74.1%
Activity [5]: 3.5%
Activity [6]: 98.6%
Activity [7]: 1.9%
Activity [8]: 100%
Activity [9]: 100%
Activity [10]: 99.7%
Activity [11]: 1.8%
Activity [12]: 33.7%
Activity [13]: 100%
Activity [14]: 98.1%
Activity [15]: 4.8%
Activity [16]: 0.8%
Activity [17]: 0%
Activity [18]: 4.1%
Activity [19]: 91.7%
Activity [20]: 36%
Activity [21]: 99.5%
Activity [22]: 83.9%
Activity [23]: 99.5%
Activity [24]: 82.4%
Activity [25]: 92.2%
Activity [26]: 98.2%
Activity [27]: 74.2%
Activity [28]: 29.1%
Activity [29]: 26.1%
Activity [30]: 88.2%
Activity [31]: 100%
Activity [32]: 56.6%
Activity [33]: 99%
